Results reported in patent US20230321288A1, “RIBOFLAVIN PHOTOCHEMICAL TREATMENT (RPT)-BASED INACTIVATION METHOD OF PATHOGENS IN BIOLOGICAL LIQUID SAMPLE” (INSTITUTE OF BLOOD TRANSFUSION CHINESE ACADEMY OF MEDICAL …, priority 2020, published 2023).

Columns and labels:
apheresis platelets = experiment: Quality of platelet preservation after RPT (Example 2, Table 1); assay type: cell-based; details: for K^+ / MPV / Na^+ / PH: platelets, 50 μM riboflavin, 30 min
Experimental: (§1) In this example, the apheresis platelets containing 50 μM of riboflavin were separately irradiated with LED lamp beads with a wavelength of 395 nm±5 nm and fluorescent tubes with a wavelength of 309 nm to 313 nm for 30 min at irradiation intensities of 1 W (395 nm f 5 nm) and 9 W (309 nm to 313 nm), respectively. The growth of Staphylococcus aureus in the blood products was then detected by a Reed-Muench method.
The properties and component contents of the platelet samples in the three groups of experiments were compared, and the results were as follows: […]

Staphylococcus aureus = experiment: RPT-based inactivation of Staphylococcus aureus in apheresis platelets, growth detected by Reed-Muench method (Example 2); assay type: cell-based; details: 50 μM riboflavin, 30 min
Experimental: as §1

E. coli = experiment: RPT-based inactivation of E. coli in plasma, growth detected by Reed-Muench method (Example 1); assay type: cell-based, Escherichia coli; details: 50 μM riboflavin, 15 min, 1 W
Experimental: In this example, the plasma of healthy blood donors containing 50 μM of riboflavin was irradiated with LED lamp beads in a series of wavelength ranges for 15 min at an irradiation intensity of 1 W. The growth of E. coli in the blood products was then detected by a Reed-Muench method.

Compound: Cc1cc2nc3c(=O)[nH]c(=O)nc-3n(C[C@H](O)[C@H](O)[C@H](O)CO)c2cc1C [riboflavin]
- damage to the platelet samples (apheresis platelets): significantly less damage
- K^+ (apheresis platelets; 309 nm to 313 nm, 9 W): 3 mmol/L
- MPV (apheresis platelets; 309 nm to 313 nm, 9 W): 12.1
- Na^+ (apheresis platelets; 309 nm to 313 nm, 9 W): 151 mmol/L
- PH (apheresis platelets; 309 nm to 313 nm, 9 W): 7.26
- K^+ (apheresis platelets; 395 nm ± 5 nm, 1 W): 2.7 ± 0^ mmol/L
- MPV (apheresis platelets; 395 nm ± 5 nm, 1 W): 9.5 ± 0^
- Na^+ (apheresis platelets; 395 nm ± 5 nm, 1 W): 153.6 ± 0.49 mmol/L
- PH (apheresis platelets; 395 nm ± 5 nm, 1 W): 7.45 ± 0.01
- inactivation of S. aureus (Staphylococcus aureus; 309 nm to 313 nm fluorescent tubes, 9 W): could inactivate the S. aureus
- inactivation effect on S. aureus compared with 309 nm to 313 nm fluorescent tubes (Staphylococcus aureus; 395 nm±5 nm LED): better
- inactivation of S. aureus (Staphylococcus aureus; 395 nm±5 nm LED, 1 W): could inactivate the S. aureus
- pathogen inactivation effect on E. coli (E. coli; LED 365 nm ± 5 nm): desirable pathogen inactivation effect
- pathogen inactivation effect on E. coli (E. coli; LED 395 nm±5 nm): desirable pathogen inactivation effect
